Reference: PubChem BioAssay AID234 (DTP/NCI, 2004)
Where “and” joins values, the source holds several entries; their conditions need not be identical. Equal values may be shown once. Records with an inconclusive call do not appear.

System: C3AKF1 mice, hamster liver cystadenocarcinoma s.c., tumor weight T/C
Assay: NCI In Vivo Anticancer Drug Screen. Data for tumor model Cystadenocarcinoma, Liver (No. 1) (Hamster) (subcutaneous) in C3AKF1 (CHKRF1) mice
Settings: endpoint: mean tumor weight, schedule: Q01DX010 (ip), higher = larger tumour
Procedure: The antitumor activity of compounds was measured in mice bearing transplantable tumors. Survival or tumor size were measured and the results are expressed as the measurement made in the treated group (T) divided by the measurement made in the vehicle treated control group (C). The tumor model used in this assay is Cystadenocarcinoma, Liver (No. 1) (Hamster) (subcutaneous) in C3AKF1 (CHKRF1) mice

[1] = dose: 62.5 mg/kg/injection, vehicle: carboxymethylcellulose (CMC)
[2] = dose: 125.0 mg/kg/injection, vehicle: carboxymethylcellulose (CMC)
[3] = dose: 250.0 mg/kg/injection, vehicle: carboxymethylcellulose (CMC)
[4] = dose: 10.0 mg/kg/injection, vehicle: carboxymethylcellulose (CMC)
[5] = dose: 20.0 mg/kg/injection, vehicle: carboxymethylcellulose (CMC)
[6] = dose: 40.0 mg/kg/injection, vehicle: carboxymethylcellulose (CMC)
[7] = dose: 25.0 mg/kg/injection, vehicle: carboxymethylcellulose (CMC)
[8] = dose: 50.0 mg/kg/injection, vehicle: carboxymethylcellulose (CMC)
[9] = dose: 100.0 mg/kg/injection, vehicle: carboxymethylcellulose (CMC)
[10] = dose: 1.0 mg/kg/injection, vehicle: carboxymethylcellulose (CMC)
[11] = dose: 1.25 mg/kg/injection, vehicle: carboxymethylcellulose (CMC)
[12] = dose: 2.0 mg/kg/injection, vehicle: carboxymethylcellulose (CMC)
[13] = dose: 2.5 mg/kg/injection, vehicle: carboxymethylcellulose (CMC)
[14] = dose: 5.0 mg/kg/injection, vehicle: carboxymethylcellulose (CMC)
[15] = dose: 62.0 mg/kg/injection, vehicle: carboxymethylcellulose (CMC)
[16] = dose: 30.0 mg/kg/injection, vehicle: carboxymethylcellulose (CMC)
[17] = dose: 60.0 mg/kg/injection, vehicle: carboxymethylcellulose (CMC)
[18] = dose: 12.0 mg/kg/injection, vehicle: carboxymethylcellulose (CMC)
[19] = dose: 15.0 mg/kg/injection, vehicle: carboxymethylcellulose (CMC)

c1ccc2c(c1)ccc1cc3c(ccc4ccccc43)cc12
T/C [1]: 64 % of control
T/C [2]: 88 % of control
T/C [3]: 86 % of control

CCCC(Sc1nc(N)nc2nc[nH]c12)C(=O)O (centres undefined)
T/C [4]: 66 % of control
T/C [5]: 103 % of control
T/C [6]: 123 % of control
T/C (dose: 80.0 mg/kg/injection, vehicle: carboxymethylcellulose (CMC)): 116 % of control and 118 % of control
T/C (dose: 160.0 mg/kg/injection, vehicle: carboxymethylcellulose (CMC)): 76 % of control

Cn1c(=O)c2[nH]c(CCCc3nc4c([nH]3)c(=O)n(C)c(=O)n4C)nc2n(C)c1=O
T/C [5]: 101 % of control
T/C [6]: 68 % of control

COC(=O)[C@@H]1c2cc3c(c(O)c2[C@@H](OC2OC(C)C(OC)C(C)(OC)C2OC)C[C@]1(C)O)C(=O)c1c(O)cc2c(c1C3=O)O[C@H]1O[C@]2(C)[C@H](O)[C@@H](N(C)C)[C@@H]1O (some centres undefined)
T/C (dose: 0.25 mg/kg/injection, vehicle: saline): 103 % of control

Nc1ccc2ccccc2c1N=Nc1ccccc1
T/C [1]: 73 % of control
T/C [2]: 79 % of control

O=S(=O)(O)C(Nc1ccccc1)c1ccccc1 (centres undefined)
T/C (dose: 100.0 mg/kg/injection, vehicle: water): 88 % of control
T/C (dose: 200.0 mg/kg/injection, vehicle: water): 66 % of control
T/C (dose: 400.0 mg/kg/injection, vehicle: water): 84 % of control

O=C(COc1cc(Cl)c(Cl)cc1Cl)OCCOc1cc(Cl)c(Cl)cc1Cl
T/C (dose: 11.25 mg/kg/injection, vehicle: carboxymethylcellulose (CMC)): 88 % of control
T/C (dose: 22.5 mg/kg/injection, vehicle: carboxymethylcellulose (CMC)): 102 % of control
T/C (dose: 45.0 mg/kg/injection, vehicle: carboxymethylcellulose (CMC)): 87 % of control

O=C(O)C1(NO)CCCC1
T/C (dose: 12.5 mg/kg/injection, vehicle: carboxymethylcellulose (CMC)): 76 % of control
T/C [7]: 108 % of control
T/C [8]: 104 % of control
T/C [9]: 80 % of control

NC(Cc1ccc(N(CCCl)CCCl)cc1)C(=O)O (centres undefined)
T/C [10]: 67 % of control
T/C [11]: 70 % of control
T/C [12]: 86 % of control
T/C [13]: 65 % of control
T/C (dose: 4.0 mg/kg/injection, vehicle: carboxymethylcellulose (CMC)): 52 % of control
T/C [14]: 82 % of control

O=C1C=Cc2ccc(O)cc2C1=O
T/C [11]: 71 % of control
T/C [13]: 72 % of control
T/C [14]: 74 % of control
T/C [4]: 88 % of control and 89 % of control
T/C [5]: 74 % of control

O=C(Nc1ccc(C2=NCCN2)cc1)c1ccc(C(=O)Nc2ccc(C3=NCCN3)cc2)c(NC(=O)c2ccc(C(=O)Nc3cc(C(=O)Nc4ccc(C5=NCCN5)cc4)ccc3C(=O)Nc3ccc(C4=NCCN4)cc3)cc2)c1
T/C [15]: 102 % of control
T/C [3]: 205 % of control

Oc1ccc2ccccc2c1N=Nc1ccccc1
T/C [7]: 102 % of control
T/C [8]: 84 % of control
T/C [9]: 75 % of control
T/C (dose: 200.0 mg/kg/injection, vehicle: carboxymethylcellulose (CMC)): 72 % of control

CCC[CH2][Sn]([CH2]CCC)([CH2]CCC)[O]C(=O)CC[S][Sn]([CH2]CCC)([CH2]CCC)[CH2]CCC
T/C (dose: 0.75 mg/kg/injection, vehicle: saline): 111 % of control
T/C (dose: 1.5 mg/kg/injection, vehicle: saline): 77 % of control
T/C (dose: 3.0 mg/kg/injection, vehicle: saline): 100 % of control
T/C (dose: 6.0 mg/kg/injection, vehicle: saline): 83 % of control and 84 % of control
T/C (dose: 12.0 mg/kg/injection, vehicle: saline): 92 % of control
T/C (dose: 24.0 mg/kg/injection, vehicle: saline): 93 % of control

CCCCn1cnc2c(SC)nc(N)nc21
T/C [16]: 88 % of control
T/C [17]: 74 % of control
T/C (dose: 115.0 mg/kg/injection, vehicle: carboxymethylcellulose (CMC)): 75 % of control

S=C(N=Nc1ccccc1)NNc1ccccc1
T/C (dose: 37.5 mg/kg/injection, vehicle: carboxymethylcellulose (CMC)): 98 % of control

CCCNC(=NC)c1ccc(NC(=O)c2ccc(C(=O)Nc3ccc(C(=NC)NCCC)cc3)cc2)cc1
T/C [18]: 99 % of control

CC(CCc1cccc2ccccc12)(C(=O)O)C(=O)O
T/C [9]: 96 % of control

Nc1nc(SCc2ccccc2Cl)c2[nH]cnc2n1
T/C [18]: 55 % of control
T/C [7]: 104 % of control
T/C [8]: 60 % of control and 84 % of control
T/C [9]: 100 % of control and 109 % of control

CC1(C)N=C(N)N=C(N)N1c1cccc(Br)c1
T/C (dose: 4.4 mg/kg/injection, vehicle: carboxymethylcellulose (CMC)): 82 % of control
T/C (dose: 6.6 mg/kg/injection, vehicle: carboxymethylcellulose (CMC)): 84 % of control

CCC1=C(c2cc(Cl)c3ccccc3c2OCC(=O)O)OC(CC)(C(=O)c2cc(Cl)c3ccccc3c2OCC(=O)O)CC1 (centres undefined)
T/C [16]: 90 % of control
T/C [17]: 87 % of control
T/C (dose: 120.0 mg/kg/injection, vehicle: carboxymethylcellulose (CMC)): 64 % of control

N#C[C@@H]1C2C=CC(CC2)[C@H]1C#N
T/C (dose: 0.5 mg/kg/injection, vehicle: carboxymethylcellulose (CMC)): 72 % of control
T/C [10]: 68 % of control
T/C [12]: 57 % of control

CC(C)=CC1C(C(=O)OCc2ccc(C)cc2C)C1(C)C (centres undefined)
T/C (dose: 87.5 mg/kg/injection, vehicle: carboxymethylcellulose (CMC)): 90 % of control
T/C (dose: 175.0 mg/kg/injection, vehicle: carboxymethylcellulose (CMC)): 72 % of control
T/C (dose: 350.0 mg/kg/injection, vehicle: carboxymethylcellulose (CMC)): 63 % of control

CC1CN1C(=O)c1cc(C(=O)N2CC2C)cc(C(=O)N2CC2C)c1 (centres undefined)
T/C [19]: 83 % of control
T/C [16]: 84 % of control
T/C [17]: 118 % of control

O=C(Nc1ccc(C2=NCCN2)cc1)c1ccc(C(=O)Nc2ccc(C3=NCCN3)cc2)c(Cl)c1
T/C (dose: 5.0 mg/kg/injection, vehicle: saline): 83 % of control
T/C (dose: 10.0 mg/kg/injection, vehicle: saline): 114 % of control
T/C (dose: 20.0 mg/kg/injection, vehicle: saline): 80 % of control

Clc1ccc(N2CCN(CCCN3CCN(c4cccc(Cl)c4)CC3)CC2)cc1
T/C (dose: 7.5 mg/kg/injection, vehicle: carboxymethylcellulose (CMC)): 71 % of control
T/C [19]: 62 % of control
T/C [16]: 52 % of control
T/C [17]: 69 % of control

Nc1nc(SCc2ccccc2)c2ncn(C3CCCC3)c2n1
T/C [15]: 120 % of control
T/C [2]: 98 % of control
T/C [3]: 91 % of control
T/C (dose: 500.0 mg/kg/injection, vehicle: carboxymethylcellulose (CMC)): 81 % of control

O=CC(O)CO (centres undefined)
T/C [2]: 120 % of control
T/C [3]: 108 % of control

Cc1c2ccc3ccccc3c2c[n+]2ccccc12
T/C (dose: 3.0 mg/kg/injection, vehicle: carboxymethylcellulose (CMC)): 153 % of control
T/C [18]: 89 % of control

C=CC(=O)NCNC(=O)C=C
T/C (dose: 15.0 mg/kg/injection, vehicle: saline): 66 % of control
T/C (dose: 30.0 mg/kg/injection, vehicle: saline): 119 % of control
T/C (dose: 60.0 mg/kg/injection, vehicle: saline): 62 % of control
T/C (dose: 120.0 mg/kg/injection, vehicle: saline): 77 % of control
